Where a name gives a salt, the structure may show the parent alone.
Experiments:
[1] = system: MS strain of HSV-2; assay: Primary genital HSV-2 infection of guinea pigs, topical treatment; type: in vivo; conditions: ACV as 5%
Description: The antiviral activity of several compounds in a primary genital HSV-2 infection of guinea pigs was tested. The experiments were placebo-controlled and uninfected animals were treated with each of the preparations to assess skin irritation. Groups treated with 5% Acyclovir were included as positive controls.
Virus and Viral Inoculation. The MS strain of HSV-2 was utilized to infect animals. Female Hartley strain guinea pigs, Charles River Breeding Laboratories, Kingston, NY, weighing 250 to 300 g were inoculated intravaginally with 1.4 x 10^5 plaque forming units of HSV-2 one hour after being swabbed for the removal of vaginal secretions.
Treatment of Guinea Pigs. Groups of ten infected guinea pigs were treated topically, 0.1 ml intravaginally and 0.1 ml on external genital skin, three times daily, approximately every eight hours, for seven days, beginning either 6 hr or 48 hr after HSV inoculation. Groups of three uninfected animals were used to assess toxicity of each preparation.
Simple Collection and Virus Assays. To determine the effect of treatment on vaginal virus replication, swabs of vaginal secretions were obtained on days 1, 3, 5, 7 and 10 after HSV-2 inoculation, placed in a tube containing 2.0 ml of media, vortexed and frozen at -70°C until titrated for HSV-2. When all samples were collected, they were thawed, diluted serially and HSV-2 titers determined using a microtiter CPE assay in rabbit kidney cells. Mean peak virus titers and areas under the virus titer-day curves were calculated and analyzed.
Scoring of External Genital Lesions. To determine the effect of therapy on the development and spread of external genital lesions, lesion severity was scored on a 0-5+ scale through the primary infection (21 days). Mean peak lesion scores and the area under the lesion score-day curves were calculated and analyzed.
Evaluation of Efficacy. The number of animals infected over the number inoculated, lesion score-day areas and virus titer-day areas under the curve, peak lesion scores and peak virus titers between untreated and placebo-treated or placebo-treated and drug-treated animals were compared using the Mann-Whitney U rank sum test. A p-value of 0.05 or less was considered significant.
The base formulation is as defined for the preferred embodiment of the composition for enhancing […] of viral lesions, but without SLS or anesthetic. Acyclovir (ACV) was used as a positive control (i.e., having antiviral activity). Placebo (PBS) treated animals were compared with an untreated control animal. 2A was compared with the untreated animals and placebo-treated animals. ACV groups were compared to the placebo-treated group. All others were compared to 2A.

[2] = system: HSV-2; assay: Inactivation studies: direct inactivation of HSV-2; design: species or system herpes simplex virus type-2; conditions: for concentrations tested at which the compound does not directly inactivate HSV-2: 30 minutes at room temperature, up to highest concentration tested
Description: (§1) A clinical isolate from a genital lesion of Herpes simplex virus, type (HSV-2), was used.
(§2) Stocks of viruses were grown by infecting MRC-5 cells at multiplicity of 0.01 plaque forming units (PFU) per cell and harvested in maintenance medium. Virus was harvested by three cycles of freezing at -70°C and thawing, followed by centrifugation at 1000 x g at 4°C for 15 minutes to remove cell debris. Resulting virus stocks were aliquoted and frozen at -70°C.
To determine if a test compound directly inactivates HSV-2, 0.5 ml of serial dilutions of the compound to be tested was mixed with 0.5 ml of stock HSV-2 (titer = […]) and incubated at room temperature for 30 minutes. After 30 minutes, the compound-virus mixture was diluted 10,000 fold in maintenance medium and virus recovery was determined by inoculating MRC-5 cells. The cells were graded for cytopathic effect after 24 hr, 48 hr, and 72 hr.

[3] = system: HSV-2; assay: Antiviral studies: inhibition of HSV-2 replication in MRC-5 cells (virus yield); type: cell-based, herpes simplex virus type-2
Description: as §1, §2
Antiviral activity, i.e., the ability of the compound to inhibit infection or replication of virus in cells, was measured by infecting confluent monolayers of MRC-5 cells in 12 x 100 mm culture tubes at a multiplicity of infection (MOI) of 3.0 plaque forming units (PFU) per cell of HSV-2 by removing the maintenance medium, washing the monolayers three times with phosphate buffered saline (PBS), and adding 0.1 ml of […] suspended in PBS. The multiplicity of infection was calculated by counting the number of viable cells in a duplicate tube and diluting the stock virus to produce a viral inoculum in a volume of 0.1 ml which contained three times the PFUs as the number of cells counted. After a 60 minute absorption period, the inoculum was removed and 4 mls of test compound at appropriate concentrations in maintenance medium or maintenance medium (control) was added. The tubes were incubated at 37°C for an additional 23 hours. At 24 hours post-infection, the medium was removed and the monolayers were washed twice with PBS and frozen and thawed 3 times in 1 ml of maintenance medium. Virus yields were determined by serial end-point titrations in 96-well tissue culture plates containing MRC-5 cells. All experiments were tested in triplicate. 50% end-points were calculated and titers were expressed in TCID 50 units. Antiviral effect was determined by subtracting the difference between the TCID 50s of the test compound and from the TCID 50s of HSV-2 virus stock titrated in the same experiment and calculated in percentages.

[4] = system: MRC-5 cells; conditions: for concentrations exhibiting significant cytotoxicity: 1440 min
[5] = system: Vero cells; assay: Cytotoxicity assay in Vero cells; type: cell-based, green monkey
Description: A continuous line of human embryo lung cells (MRC-5) were grown in Eagle's minimal essential medium (MEM) in Earle's salts supplemented with 2 mM L-glutamine, […] gentamicin, 0.25 mg/ml amphotericin B (Fungisone) ad 10% heat-inactivated fetal calf serum (growth medium). Cells were grown at 37°C in a humidified 5% CO2 atmosphere or in closed flasks. Maintenance medium was the same basic composition, except the concentration of fetal calf serum was 2%. Vero cells (continuous line of green monkey kidney cells) were grown in the same manner as MRC-5 cells.
Cytotoxicity assays were performed in MRC-5 cells and in Vero cells. The test compound was dissolved in maintenance medium at selected concentrations and inoculated onto MRC-5 or Vero cells in 96 well tissue culture plates. Each concentration was inoculated in triplicate. The plates were incubated at 37°C in 5% CO2 and graded for cytotoxicity at 24,48 and 72 hours after inoculation. The highest concentration of compound showing 50% cytotoxicity after 72 hours was designated the end point.

Nc1nc2c(ncn2COCCO)c(=O)[nH]1 [ACV, Acyclovir]
virus titer-day area under the curve (AUC) ([1]; therapy given 6 hr after viral inoculation, vs placebo, p 0.05): significantly reduced | mean peak virus titer ([1]; therapy given 6 hr after viral inoculation, vs placebo, p <0.01): significantly reduced | lesion development ([1]; therapy initiated 6 hr following HSV-2 inoculation, P <0.05 or less): significantly decreased | mean peak lesion score ([1]; therapy initiated 6 hr following inoculation, P <0.001): reduced

O=C(O)c1cccnc1 [Niacin]
concentrations tested at which the compound does not directly inactivate HSV-2 [2]: up to 0.25% | inhibition of the replication of HSV-2 / antiviral activity ([3]; concentration not given): does not inhibit | concentrations non-toxic in MRC-5 cells ([4]; human): ≤ 0.25%

CCN(CC)CCOC(=O)c1ccc(N)cc1 [Procaine HCl, Procaine hydrochloride]
concentrations showing significant toxicity ([5]; monkey): above 2.0% | concentrations tested at which the compound does not directly inactivate HSV-2 [2]: up to 4% | concentrations unable to inhibit the replication of HSV-2 ([3]; MOI 3.0, 24 hours post-infection, up to stated concentration): up to 2% | inhibition of the replication of HSV-2 / antiviral activity ([3]; concentration not given): does not | concentrations exhibiting significant cytotoxicity ([4]; human): above 0.25%

CCCCCCCCCCCCOS(=O)(=O)O [SLS, sodium lauryl (or dodecyl) sulfate]
direct inactivation of HSV-2 ([2]; concentration of 0.00032%): No inactivation | inhibition of viral replication ([3]; 0.0013%): does not inhibit | inhibition of viral replication ([3]; 0.0025%): does not inhibit | concentrations highly toxic to MRC-5 cells ([4]; MRC-5 cells, time not stated): above 0.0025%

CCCCNc1ccc(C(=O)OCCN(C)C)cc1 [Tetracaine HCl]
significant toxicity in Vero cells ([5]; Vero cells, result in words): not in Vero cells | concentrations tested at which the compound does not directly inactivate HSV-2 [2]: up to 2% | inhibition of the replication of HSV-2 ([3]; 0.25%): partially inhibited | inhibition of the replication of HSV-2 / antiviral activity ([3]; 0.5%, HCl): partially inhibited | inhibition of the replication of HSV-2 / antiviral activity ([3]; 0.5%, listed as tetracaine HCl, HCl): some antiviral activity | concentrations exhibiting significant cytotoxicity ([4]; human): above 0.03%

Reference: patent publication EP0590024B1, “TOPICAL COMPOSITION ENHANCING HEALING OF HERPES LESIONS” (VIRO-TEX CORPORATION, priority 1991, dated 1993)
